For assay [1], the system named is Pyricularia oryzae. The format is in vivo. The conditions noted are these: added to the water, 52 days after treatment.
The test system of assay [2] is Pyricularia oryzae. Format: in vivo. The note with it: added to the water, 126 day after treatment.
The mark [3] stands for this setting: Granules 50 g/kg, dose 100 g/ha.
Setting [4] is: Granules 50 g/kg, dose 250 g/ha.
Setting [5] is: Granules 50 g/kg, dose 500 g/ha.
Setting [6] is: Granules 50 g/kg, dose 1000 g/ha.
Where [7] appears, read: SO 30 g/L (Example 1), dose 50 g/ha.
Setting [8] is: SO 30 g/L (Example 1), dose 100 g/ha.
Setting [9] is: SO 30 g/L (Example 1), dose 250 g/ha.
The mark [10] stands for this setting: SO 30 g/L (Example 1), dose 500 g/ha.
[11] abbreviates: SO 30 g/L (Example 1), dose 1000 g/ha.

We go through one molecule from US6387848B1, “Non-aqueous concentrated spreading oil composition” (priority 2000, dated 2002).

Read-outs that look alike come from different tables or passages of the source.

As to `C[C@H](Nc1c(-c2c(F)cc(F)cc2F)c(Cl)nc2ncnn12)C(F)(F)F` [(S)-Azolopyrimidine C, 5-chloro-6-(2,4,6-trifluorophenyl)-7-(1,1,1-trifluoroprop-2-ylamino)-[1,2,4]triazolo[1,5-a]pyrimidine], the “Percent rice leaf blast control, control (%)” value is recorded as 78% in assay [1] (setting [3]); 86% in assay [1] (setting [4]); 90% in assay [1] (setting [5]); 95% in assay [1] (setting [6]); 97% in assay [1] (Granules 50 g/kg, dose 1500 g/ha); 84% in assay [1] (setting [7]). For the same molecule, the “Percent rice leaf blast control, control (%)” value came out at 89% in assay [1] (setting [8]), 95% in assay [1] (setting [9]), 97% in assay [1] (setting [10]) and 98% in assay [1] (setting [11]). Further, the “Percent rice danicle blast control, control (%)” value was found to be 39% in assay [2] (setting [3]); 44% in assay [2] (setting [4]); 67% in assay [2] (setting [5]); 82% in assay [2] (setting [6]); 22% in assay [2] (setting [7]); 44% in assay [2] (setting [8]). The “Percent rice danicle blast control, control (%)” value in assay [2] (setting [9]) came to 67%; in assay [2] (setting [10]), 78%; in assay [2] (setting [11]), 84%.
